# US20110105623A1 (Biogenic Innovations, LLC, priority 2009, published 2011)
# Legend:
# [1] = test system: Streptococcus Pyogenes (Lancefield group A, #10096); test: Bacterial viability by bioluminescent ATP assay
# [2] = test system: Streptococcus Pneumonia (#10341); test: Bacterial viability by bioluminescent ATP assay
Compound,IC50 [1],Viability of S. pyogenes ([1]; DMSO Concentration 0.31) [%],Viability of S. pyogenes ([1]; DMSO Concentration 0.63) [%],Viability of S. pyogenes ([1]; DMSO Concentration 1.25) [%],Viability of S. pyogenes ([1]; DMSO Concentration 2.50) [%],"S. pyogenes viability ([1]; DMSO […], MSM 0%) [%]",IC50 [2] [%],reduces viability by ([2]; 5% DMSO),S. pneumonia viability (%) ([2]; 25 μg/L penicillin alone),reduced viability by ([2]; 25 μg/L penicillin alone),S. pneumonia viability (%) ([2]; 50 μg/L Penicillin alone),S. pneumonia viability (%) ([2]; 100 μg/L Penicillin alone),"S. pneumonia viability ([2]; Penicillin 100 μg/L, MSM 0%) [%]"
"C[S+](C)[O-] [DMSO, Dimethyl sulfoxide]",9.07%,100,100,100,100,100,12.86,approximately 25%,,,,,
Penicillin,15.25 µg/L,,,,,,,,79.82,approximately 21%,42.70,40.93,40.93
